Test results published in patent publication US11445724B2, “Insecticidal compounds” (SYNGENTA PARTICIPATIONS AG, priority 2013, dated 2022).

Columns and labels:
Assay type in all cases: in vivo
[1] = system: Thrips tabaci (Onion thrips); test: Thrips tabaci (Onion thrips) mortality, sprayed sunflower leaf discs; settings: foliar, 168 h, 200 ppm spray on sunflower leaf discs, mixed ages, mortality after 7 days
[2] = system: Diabrotica balteata (Corn root worm); test: Diabrotica balteata (Corn root worm) larval mortality, artificial diet in 24-well MTP; settings: 120 h, application rate 200 ppm (concentration in well 18 ppm), L2 larvae, larval mortality after 5 days
[3] = system: Spodoptera littoralis (Egyptian cotton leafworm); test: Spodoptera littoralis (Egyptian cotton leafworm) mortality, sprayed cotton leaf discs; settings: foliar, 72 h, 200 ppm spray on cotton leaf discs, L1 larvae, mortality 3 DAT
[4] = system: Plutella xylostella (Diamond back moth); test: Plutella xylostella (Diamond back moth) larval mortality, artificial diet in 24-well MTP; settings: 144 h, application rate 200 ppm (concentration in well 18 ppm), L2 larvae, larval mortality after 6 days
[5] = system: Myzus persicae (Green peach aphid); test: Myzus persicae (Green peach aphid) mortality, test compounds mixed with Sucrose solution under Parafilm; settings: 120 h, 12.5 ppm in Sucrose solution, infested pea seedlings on Parafilm, mortality 5 days after infestation
[6] = system: Myzus persicae (Green peach aphid); test: Myzus persicae (Green peach aphid) mortality, sprayed sunflower leaf discs; settings: foliar, 144 h, 200 ppm spray on sunflower leaf discs, mixed ages, mortality 6 DAT
[7] = system: Tetranychus urticae (Two-spotted spider mite); test: Tetranychus urticae (Two-spotted spider mite) mortality, sprayed bean leaf discs; settings: foliar, 192 h, 200 ppm spray on bean leaf discs, mixed ages, egg, larval and adult mortality after 8 days

COc1c(NC(=O)c2ccccc2F)cccc1C(=O)Nc1c(Br)cc(C(F)(C(F)(F)F)C(F)(F)F)cc1OC(F)F [Compound 33]
≥ 80%: pest or weed control at 200 ppm [1] | pest or weed control at 200 ppm [2] | pest or weed control at 200 ppm [3] | pest or weed control at 200 ppm [4] | pest or weed control at 12.5 ppm [5]

COc1c(NC(=O)c2ccc(C)cc2)cccc1C(=O)Nc1c(Br)cc(C(F)(C(F)(F)F)C(F)(F)F)cc1OC(F)F [Compound 41]
≥ 80%: pest or weed control at 200 ppm [1] | pest or weed control at 200 ppm [6] | pest or weed control at 200 ppm [2] | pest or weed control at 200 ppm [3] | pest or weed control at 200 ppm [4] | pest or weed control at 12.5 ppm [5]

COc1c(NC(=O)c2cc(Cl)ccc2F)cccc1C(=O)Nc1c(Br)cc(C(F)(C(F)(F)F)C(F)(F)F)cc1OC(F)F [Compound 44]
≥ 80%: pest or weed control at 200 ppm [3] | pest or weed control at 200 ppm [4] | pest or weed control at 12.5 ppm [5]

O=C(Nc1cccc(C(=O)Nc2c(Cl)cc(C(F)(C(F)(F)F)C(F)(F)F)cc2OC(F)F)c1F)c1ccccc1F [Compound 45]
≥ 80%: pest or weed control at 200 ppm [1] | pest or weed control at 200 ppm [6] | pest or weed control at 200 ppm [2] | pest or weed control at 200 ppm [3] | pest or weed control at 200 ppm [4] | pest or weed control at 12.5 ppm [5]

Cc1ccccc1C(=O)Nc1cccc(C(=O)Nc2c(Cl)cc(C(F)(C(F)(F)F)C(F)(F)F)cc2OC(F)F)c1F [Compound 46]
≥ 80%: pest or weed control at 200 ppm [1] | pest or weed control at 200 ppm [7] | pest or weed control at 200 ppm [2] | pest or weed control at 200 ppm [3] | pest or weed control at 200 ppm [4]

COc1c(NC(=O)c2ccccc2OC(F)(F)F)cccc1C(=O)Nc1c(Br)cc(C(F)(C(F)(F)F)C(F)(F)F)cc1OC(F)F [Compound 56]
≥ 80%: pest or weed control at 200 ppm [1] | pest or weed control at 200 ppm [6] | pest or weed control at 200 ppm [2] | pest or weed control at 200 ppm [3] | pest or weed control at 200 ppm [4] | pest or weed control at 12.5 ppm [5]

COc1c(NC(=O)c2ccccc2C)cccc1C(=O)Nc1c(Cl)cc(C(F)(C(F)(F)F)C(F)(F)F)cc1OC(F)F [Compound 77]
≥ 80%: pest or weed control at 200 ppm [1] | pest or weed control at 200 ppm [7] | pest or weed control at 200 ppm [2] | pest or weed control at 200 ppm [3] | pest or weed control at 200 ppm [4]

CCN(C(=O)c1cc(Cl)ccc1F)c1cccc(C(=O)Nc2c(Br)cc(C(F)(C(F)(F)F)C(F)(F)F)cc2OC(F)F)c1F [Compound 104]
≥ 80%: pest or weed control at 200 ppm [1] | pest or weed control at 200 ppm [2] | pest or weed control at 200 ppm [3] | pest or weed control at 200 ppm [4] | pest or weed control at 12.5 ppm [5]

CCN(C(=O)c1ccc(C(F)(F)F)cc1)c1cccc(C(=O)Nc2c(Br)cc(C(F)(C(F)(F)F)C(F)(F)F)cc2OC(F)F)c1F [Compound 105]
≥ 80%: pest or weed control at 200 ppm [1] | pest or weed control at 200 ppm [6] | pest or weed control at 200 ppm [2] | pest or weed control at 200 ppm [3] | pest or weed control at 200 ppm [4] | pest or weed control at 12.5 ppm [5]

CCN(C(=O)c1cc(C(F)(F)F)ccc1F)c1cccc(C(=O)Nc2c(Br)cc(C(F)(C(F)(F)F)C(F)(F)F)cc2OC(F)F)c1F [Compound 110]
≥ 80%: pest or weed control at 200 ppm [1] | pest or weed control at 200 ppm [2] | pest or weed control at 200 ppm [3] | pest or weed control at 200 ppm [4] | pest or weed control at 12.5 ppm [5]

CCN(C(=O)c1ccccc1F)c1cccc(C(=O)Nc2c(Cl)cc(C(F)(C(F)(F)F)C(F)(F)F)cc2OC(F)F)c1F [Compound 111]
≥ 80%: pest or weed control at 200 ppm [1] | pest or weed control at 200 ppm [6] | pest or weed control at 200 ppm [2] | pest or weed control at 200 ppm [3] | pest or weed control at 200 ppm [4] | pest or weed control at 12.5 ppm [5]

CCN(C(=O)c1ccc([N+](=O)[O-])cc1)c1cccc(C(=O)Nc2c(Cl)cc(C(F)(C(F)(F)F)C(F)(F)F)cc2OC(F)F)c1F [Compound 113]
≥ 80%: pest or weed control at 200 ppm [2] | pest or weed control at 200 ppm [3] | pest or weed control at 200 ppm [4] | pest or weed control at 12.5 ppm [5]

CCN(C(=O)c1ccc(C)cc1)c1cccc(C(=O)Nc2c(Cl)cc(C(F)(C(F)(F)F)C(F)(F)F)cc2OC(F)F)c1F [Compound 114]
≥ 80%: pest or weed control at 200 ppm [1] | pest or weed control at 200 ppm [2] | pest or weed control at 200 ppm [3] | pest or weed control at 200 ppm [4] | pest or weed control at 12.5 ppm [5]

CCN(C(=O)c1cc(Cl)ccc1F)c1cccc(C(=O)Nc2c(Cl)cc(C(F)(C(F)(F)F)C(F)(F)F)cc2OC(F)F)c1F [Compound 115]
≥ 80%: pest or weed control at 200 ppm [1] | pest or weed control at 200 ppm [2] | pest or weed control at 200 ppm [3] | pest or weed control at 200 ppm [4] | pest or weed control at 12.5 ppm [5]

CCN(C(=O)c1ccc([N+](=O)[O-])cc1Cl)c1cccc(C(=O)Nc2c(Cl)cc(C(F)(C(F)(F)F)C(F)(F)F)cc2OC(F)F)c1F [Compound 116]
≥ 80%: pest or weed control at 200 ppm [1] | pest or weed control at 200 ppm [2] | pest or weed control at 200 ppm [3] | pest or weed control at 12.5 ppm [5]

CCN(C(=O)c1ccc(C(F)(F)F)cc1)c1cccc(C(=O)Nc2c(Cl)cc(C(F)(C(F)(F)F)C(F)(F)F)cc2OC(F)F)c1F [Compound 117]
≥ 80%: pest or weed control at 200 ppm [1] | pest or weed control at 200 ppm [2] | pest or weed control at 200 ppm [3] | pest or weed control at 200 ppm [4] | pest or weed control at 12.5 ppm [5]

CCN(C(=O)c1cccc(F)c1F)c1cccc(C(=O)Nc2c(Cl)cc(C(F)(C(F)(F)F)C(F)(F)F)cc2OC(F)F)c1F [Compound 123]
≥ 80%: pest or weed control at 200 ppm [1] | pest or weed control at 200 ppm [6] | pest or weed control at 200 ppm [2] | pest or weed control at 200 ppm [3] | pest or weed control at 200 ppm [4] | pest or weed control at 12.5 ppm [5]

CCN(C(=O)c1ccccc1F)c1cccc(C(=O)Nc2c(Br)cc(C(F)(C(F)(F)F)C(F)(F)F)cc2OC(F)F)c1F [Compound 125]
≥ 80%: pest or weed control at 200 ppm [1] | pest or weed control at 200 ppm [6] | pest or weed control at 200 ppm [2] | pest or weed control at 200 ppm [3] | pest or weed control at 200 ppm [4] | pest or weed control at 12.5 ppm [5]

CCN(C(=O)c1ccccc1C)c1cccc(C(=O)Nc2c(Br)cc(C(F)(C(F)(F)F)C(F)(F)F)cc2OC(F)F)c1F [Compound 126]
≥ 80%: pest or weed control at 200 ppm [1] | pest or weed control at 200 ppm [2] | pest or weed control at 200 ppm [3] | pest or weed control at 200 ppm [4] | pest or weed control at 12.5 ppm [5]

CCN(C(=O)c1ccccc1)c1cccc(C(=O)Nc2c(Br)cc(C(F)(C(F)(F)F)C(F)(F)F)cc2OC(F)F)c1OC [Compound 138]
≥ 80%: pest or weed control at 200 ppm [1] | pest or weed control at 200 ppm [6] | pest or weed control at 200 ppm [2] | pest or weed control at 200 ppm [3] | pest or weed control at 200 ppm [4] | pest or weed control at 12.5 ppm [5]

CCN(C(=O)c1cccc(F)c1F)c1cccc(C(=O)Nc2c(Br)cc(C(F)(C(F)(F)F)C(F)(F)F)cc2OC(F)F)c1OC [Compound 142]
≥ 80%: pest or weed control at 200 ppm [1] | pest or weed control at 200 ppm [6] | pest or weed control at 200 ppm [2] | pest or weed control at 200 ppm [3] | pest or weed control at 200 ppm [4]

CCN(C(=O)c1ccc(F)cc1F)c1cccc(C(=O)Nc2c(Br)cc(C(F)(C(F)(F)F)C(F)(F)F)cc2OC(F)F)c1OC [Compound 143]
≥ 80%: pest or weed control at 200 ppm [1] | pest or weed control at 200 ppm [6] | pest or weed control at 200 ppm [2] | pest or weed control at 200 ppm [3] | pest or weed control at 200 ppm [4]

CCN(C(=O)c1ccccc1Cl)c1cccc(C(=O)Nc2c(Cl)cc(C(F)(C(F)(F)F)C(F)(F)F)cc2OC(F)F)c1OC [Compound 147]
≥ 80%: pest or weed control at 200 ppm [1] | pest or weed control at 200 ppm [6] | pest or weed control at 200 ppm [2] | pest or weed control at 200 ppm [3] | pest or weed control at 200 ppm [4]

CCN(C(=O)c1ccc(C)cc1)c1cccc(C(=O)Nc2c(Cl)cc(C(F)(C(F)(F)F)C(F)(F)F)cc2OC(F)F)c1OC [Compound 149]
≥ 80%: pest or weed control at 200 ppm [1] | pest or weed control at 200 ppm [6] | pest or weed control at 200 ppm [2] | pest or weed control at 200 ppm [3] | pest or weed control at 200 ppm [4]

CCN(C(=O)c1ccccc1)c1cccc(C(=O)Nc2c(Cl)cc(C(F)(C(F)(F)F)C(F)(F)F)cc2OC(F)F)c1OC [Compound 155]
≥ 80%: pest or weed control at 200 ppm [1] | pest or weed control at 200 ppm [6] | pest or weed control at 200 ppm [2] | pest or weed control at 200 ppm [3] | pest or weed control at 200 ppm [4] | pest or weed control at 12.5 ppm [5]

CCN(C(=O)c1cccc(F)c1F)c1cccc(C(=O)Nc2c(Cl)cc(C(F)(C(F)(F)F)C(F)(F)F)cc2OC(F)F)c1OC [Compound 159]
≥ 80%: pest or weed control at 200 ppm [1] | pest or weed control at 200 ppm [6] | pest or weed control at 200 ppm [2] | pest or weed control at 200 ppm [3] | pest or weed control at 200 ppm [4] | pest or weed control at 12.5 ppm [5]

CCN(C(=O)c1ccc(F)cc1F)c1cccc(C(=O)Nc2c(Cl)cc(C(F)(C(F)(F)F)C(F)(F)F)cc2OC(F)F)c1OC [Compound 160]
≥ 80%: pest or weed control at 200 ppm [1] | pest or weed control at 200 ppm [2] | pest or weed control at 200 ppm [3] | pest or weed control at 200 ppm [4] | pest or weed control at 12.5 ppm [5]

COc1c(C(=O)Nc2c(Br)cc(C(F)(C(F)(F)F)C(F)(F)F)cc2OC(F)F)cccc1N(C)C(=O)c1cc[n+]([O-])cc1 [Compound 183, N-[3-[[2-bromo-6-(difluoromethoxy)-4-[1,2,2,2-tetrafluoro-1-(trifluoromethyl)ethyl]phenyl]carbamoyl]-2-methoxy-phenyl]-N-methyl-1-oxido-pyridin-1-ium-4-carboxamide]
≥ 80%: pest or weed control at 200 ppm [2] | pest or weed control at 12.5 ppm [5]
